Measurements as given in patent US20020127605A1 (priority 2000, published 2002).

Target: T1, recombinant rat CyPA-GST fusion protein (Rattus norvegicus, UniProt P10111)
T1 construct: made in house; host or cells: E. coli BL21
Test: Rotamase (prolyl peptidyl cis-trans isomerase) inhibition, chymotrypsin-coupled cuvette assay
Type: biochemical
Settings: not given
Source text: A number of substrates for rotamase are known in the art or can be derived from those known. Typically, the substrate contacts a sample containing a protein with rotamase activity and the conversion of the substrate is detected after a period of time. The method for detecting conversion of the substrate will vary with the particular substrate chosen. One method has been termed the Ki test (See Harding, et al., Nature, 341:758-760 (1989). The cis-trans isomerization of an alanine-proline bond in a model substrate, N-succinyl-Ala-Ala-Pro-Phe-p-nitroanilide, is monitored spectrophotometrically in a chymotrypsin-coupled assay. The action of chymotrypsin releases p-nitroaniline from only the trans form of the substrate. The amount of p-nitroaniline can be monitored in a spectrophotometer, for example. Other methods of detecting the presence of p-nitroaniline can also be used. The inhibition of this reaction caused by different concentrations of inhibitor is determined and the data are analyzed as a change in first-order rate constant as a function of inhibitor concentration, which yields the Ki value.
The following were added to a plastic cuvette: […] of ice cold assay buffer (25 mM HEPES, pH 7.8, 100 mM NaCl), 10 μL of CyP A (2.5 μM in 10 mM Tris-Cl pH 7.5, 100 mM NaCl, 1 mM dithiothreitol), 25 μL of chymotrypsin (50 mg/ml in 1 mM HCl), and 10 μL of test compound, at various concentrations, in dimethyl sulfoxide. The reaction was initiated by the addition of 5 μL of substrate (succinyl-Ala-Phe-Pro-Phe-para-nitroanilide, 5 mg/mL in 470 mM LiCl in trifluoroethanol). The absorbance at 390 nm versus time was monitored for 90 seconds using a spectrophotometer and the rate constants were determined from the absorbance versus time data files.
The IC50 values that were obtained for representative compounds in the following Table I refer to the concentration that inhibits 50% of the rotamase activity in a sample. […] The Cyclophilin utilized was a recombinant rat CyPA-GST fusion protein: CypA was amplified from rat brain cDNA using standard PCR methods, primed with the following sequences: 5′ CCCCCCGGGAGTCAACCCCACCGTGTTCTTCGA 3′ and 5′ GGAGATCTAGAGTTGTCCACAGTCGGAGATGGT 3′. The resulting fragment (573 base pairs) was cloned into pCRII and amplified. The CyP sequence was cut out with Smal and EcoRl and cloned into the Smal/EcoRl sites in pGEX2TK (Pharmacia). This plasmid was transformed into BL21 E. coli cells for expression of the GST-CyPA fusion protein.

T1 sequence (P10111 2-164): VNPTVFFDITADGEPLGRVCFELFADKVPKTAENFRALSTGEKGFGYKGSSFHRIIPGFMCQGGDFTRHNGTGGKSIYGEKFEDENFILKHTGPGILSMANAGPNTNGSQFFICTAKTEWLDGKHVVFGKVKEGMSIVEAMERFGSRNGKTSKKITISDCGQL

Compound | IC50 [µM]
Cc1ccc(S(=O)(=O)N(c2cccc(NC(=O)Nc3cc(Cl)cc(Cl)c3)c2)S(=O)(=O)c2ccc(C)cc2)cc1 [Compound 2] | 0.149
COc1ccc(S(=O)(=O)N(c2cccc(NC(=O)c3cc(Cl)cc(Cl)c3)c2)S(=O)(=O)c2ccc(C)cc2)cc1 [Compound 3] | 0.955
O=C(Nc1cccc(N(S(=O)(=O)c2cc(Cl)cc(Cl)c2)S(=O)(=O)c2cc(Cl)cc(Cl)c2)c1)Nc1c(Cl)cccc1Cl [Compound 6] | 0.99
O=C(Nc1cc(Cl)cc(Cl)c1)Nc1cccc(N(S(=O)(=O)c2cc(Cl)cc(Cl)c2)S(=O)(=O)c2cc(Cl)cc(Cl)c2)c1 [Compound 7] | 1.22
O=C(Nc1cc(Cl)cc(Cl)c1)[C@@H]1CC[C@H](NC(=S)Nc2cc(Cl)cc(Cl)c2)C1 [Compound 17] | 0.854
O=C(Nc1cccc(Oc2ccccc2)c1)Nc1cc(C(F)(F)F)cc(C(F)(F)F)c1 [Compound 26] | 1.56
O=C(Nc1cc(Cl)cc(Cl)c1)Nc1ccccc1NC(=O)Nc1cc(Cl)cc(Cl)c1 [Compound 27] | 0.667
O=C(Nc1ccccc1NC(=O)c1ccc(I)cc1)c1ccc(I)cc1 [Compound 29] | 0.94

Same assay, conditions: recombinant rat CyPA-GST fusion protein; values without asterisk; read-out: IC50 (rotamase activity)

IC50 [µM] | Compound
0.162 | COc1ccc(S(=O)(=O)N(c2cccc(NC(=O)Nc3cc(Cl)cc(Cl)c3)c2)S(=O)(=O)c2ccc(C)cc2)cc1 [Compound 1, [(3,5-dichlorophenyl)amino]-N-(3-{[(4-methoxylihenyl)sulfonyl][(4-methylphenyl)sulfonyl]amino}phenyl)formamide]
0.995 | COc1ccc(S(=O)(=O)N(c2cccc(N(S(=O)(=O)c3cc(Cl)cc(Cl)c3)S(=O)(=O)c3cc(Cl)cc(Cl)c3)c2)S(=O)(=O)c2ccc(C)cc2)cc1 [Compound 4, (3-{bis[(3,5-dichlorophenyl)sulfonyl]amino}phenyl)[(4-methoxy-phenyl)sulfonyl][(4-methylphenyl)sulfonyl]amine]
0.732 | COc1ccc(S(=O)(=O)N(c2cccc(N(S(=O)(=O)c3cc(Cl)cc(Cl)c3)S(=O)(=O)c3cc(Cl)cc(Cl)c3)c2)S(=O)(=O)c2ccc(OC)cc2)cc1 [Compound 10, (3-{Bis[(3,5-dichlorolphenyl)sulfonyl]amino}phenyl)bis[(4-methoxyphenyl)sulfonyl]amine]
0.767 | FC(F)(F)c1cc(NC(=S)NC2CCCCC2NC(=S)Nc2cc(C(F)(F)F)cc(C(F)(F)F)c2)cc(C(F)(F)F)c1 (stereo not shown) [Compound 12, {[3,5-bis(trifluoromethyl)phenyl]amino}({2-[({[3,5-bis(trifluoromethyl)phenyl]amino}thioxomethyl)amino]cyclohexyl}amino)methane-1-thione]
0.786 | S=C(Nc1ccc(Cl)c(Cl)c1)NC1CCCCC1NC(=S)Nc1ccc(Cl)c(Cl)c1 (stereo not shown) [Compound 14, [(3,4-dichlorophenyl)amino]{[2-({[(3,4-dichlorophenyl)amino]thioxomethyl}amino)cyclohexyl]amino}methane-1-thione]
0.61 | S=C(Nc1cc(Cl)cc(Cl)c1)NC1CCCCC1NC(=S)Nc1cc(Cl)cc(Cl)c1 (stereo not shown) [Compound 15, [(3,5-dichlorophenyl)amino]{[2-({[(3,5-dichlorophenyl)amino]thioxomethyl}amino)cyclohexyl]amino}methane-1-thione]
1.53 | O=C(Nc1cc(Cl)cc(Cl)c1)N[C@H]1CC[C@@H](NC(=O)Nc2cc(Cl)cc(Cl)c2)CC1 [Compound 16, cis-[(3,5-Dichlorophenyl)amino]-N-(4-{[(3,5-dichlorolphenyl)amino]carbonylamino}cyclohexyl)formamide]
0.901 | O=C(Nc1cc(Cl)cc(Cl)c1)[C@@H]1C=C[C@H](NC(=S)Nc2cc(Cl)cc(Cl)c2)C1 [Compound 18, (1S,3R)-N-(3,5-dichlorophenyl)[4-({[(3,5-dichlorolphenyl)amino]thioxomethyl}amino)cyclopent-2-enyl]formamide]
0.754 | O=C(Nc1cc(Cl)cc(Cl)c1)[C@H]1CC[C@@H](NC(=S)Nc2cc(Cl)cc(Cl)c2)C1 [Compound 19]
0.188 | S=C(Nc1cc(Cl)cc(Cl)c1)Nc1cccc(C=C(c2ccc(Cl)cc2)c2ccc(Cl)cc2)c1 [Compound 20]
0.895 | O=C(NNC(=S)Nc1cc(Cl)cc(Cl)c1)c1cccc(OCc2cc(C(F)(F)F)cc(C(F)(F)F)c2)c1 [Compound 23]
0.909 | O=C(COc1cccc(NC(=O)c2cc(Cl)cc(Cl)c2)c1)Nc1cc(Cl)cc(Cl)c1 [Compound 24, N-(3,5-dichlorophenyl)-2-{3-[(3,5-dichlorolphenyl)carbonylamino]phenoxy}ethanamide]
0.964 | O=C(Nc1cccc(OS(=O)(=O)c2c(F)c(F)c(F)c(F)c2F)c1)c1cc(Cl)cc(Cl)c1 [Compound 25, 3-[(3,5-dichlorophenyl)carbonylamino]phenyl 2,3,4,5,6-penta-fluorobenzenesulfonate]
1.1 | S=C(Nc1cc(Cl)cc(Cl)c1)Nc1ccccc1NC(=S)Nc1cc(Cl)cc(Cl)c1 [Compound 28, [(3,5-dichlorophenyl)amino]{[2-({[(3,5-dichlorophenyl)amino]thioxomethyl}amino)phenyl]amino}methane-1-thione]
0.783 | bis[(3,5-dichlorophenyl)sulfonyl](3-{[(naphthylamino) thioxomethyl]amino}phenyl)amine [Compound 5]

Target: human recombinant CyPA (Homo sapiens, UniProt P62937)
Sequence (P62937 whole entry): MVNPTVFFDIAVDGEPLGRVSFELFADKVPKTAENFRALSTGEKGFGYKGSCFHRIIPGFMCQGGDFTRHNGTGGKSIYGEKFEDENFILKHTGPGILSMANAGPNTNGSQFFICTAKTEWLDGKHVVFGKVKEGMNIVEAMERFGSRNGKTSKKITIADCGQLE
Test: Semiautomated microtiter plate assay of rotamase activity inhibition
Type: biochemical
Settings: 30 minute preincubation at 4° C., read-out: IC50 (rotamase inhibition, modified plate reader assay)
Procedure: Semiautomated Assay of Rotamase Activity Inhibition: Rotamase inhibition was determined using a semiautomated microtiter plate assay modification of the above described assay [see Küillertz et al., Clin. Chem. 44, 502-508 (1998)]. All dilutions of CyPA, peptide substrate, and chymotrypsin were made in 35 mM ice-cold HEPES buffer. Fifty μL of CyPA solution were added to 50 μL of peptide substrate solution (Phe-Pro-Phe p-nitroanilide, 0.16 mg/ml) in a glass microtiter well plate (the concentration of human recombinant CyP being adjusted so that the reaction rate is increased by a factor of 3 as compared to an uncatalyzed control reaction wherein the peptide substrate is degraded by chymotrypsin alone, in the absence of CyPA and test compound). Using a Beckman Multimek™ 96 automated 96-channel pipettor, 5 μL of test compound solution, or a DMSO blank, were added to each well for a 30 minute preincubation at 4° C. One hundred μL of chymotrypsin solution (1 mg/mL) were added to each well and the absorbance at 390 nm versus time was monitored for 9-10 minutes using a BioRad Ultramark plate reader maintained at 4° C. and the rate constants were determined from the absorbance versus time data files. The cyclophilin utilized was a human recombinant CyPA [Yoo et al., J. Mol. Biol., 269 (1997) 780-95].
IC50 values which were obtained for representative compounds using this modified plate reader assay of rotamase inhibition are given in the following Table II: […]

IC50 [µM] | Compound
0.309 | O=S(=O)(c1cc(Cl)cc(Cl)c1)N(c1cccc(N(S(=O)(=O)c2ccc3ccccc3c2)S(=O)(=O)c2ccc3ccccc3c2)c1)S(=O)(=O)c1cc(Cl)cc(Cl)c1 [Compound 9, (3-{Bis[(3,5-dichlorophenyl)sulfonyl]amino}phenyl)bis(2-naphthylsulfonyl)amine]
0.154 | O=C(CCCCCc1cccc(C(F)(F)F)c1)Nc1cccc(C(=O)NNC(=S)Nc2ccc(Cl)c(Cl)c2)c1 [Compound 32, 1-{[1-Aza-2-oxo-7-(3-trifluoromethylphenyl)]heytyl}-3-{[5-(3 4-dichlorophenyl)-1-oxo-2,3,5-triaza-4-thio]pentyl}benzene]
4.64 | O=C(CCCCc1ccccc1)Nc1cccc(S(=O)(=O)NC(=S)Nc2ccc(Cl)c(Cl)c2)c1 [Compound 34A]
19.1 | O=C(CCCCc1ccccc1)Nc1cccc(S(=O)(=O)NC(=O)Nc2ccc(Cl)c(Cl)c2)c1 [Compound 34B]
0.372 | O=C(CCCCc1ccccc1)Nc1cccc(S(=O)(=O)NNC(=S)Nc2ccc(Cl)c(Cl)c2)c1 [Compound 35]
0.532 | O=C(CCCCCCc1ccccc1)Nc1cccc(C(=O)NNC(=S)Nc2ccc(Cl)c(Cl)c2)c1 [Compound 37, 1-{3-[(7-Phenyl)heptanoylamino]benzoyl}-4-(3,4-dichlorophenyl)thiosemicarbazide]
0.672 | O=C(CCCCc1cccs1)Nc1cccc(C(=O)NNC(=S)Nc2ccc(Cl)c(Cl)c2)c1 [Compound 38, 1-{[1-Aza-2-oxo-6-(thien-2-yl)]hexyl}-3-{[5-(3,4-dichlorophenyl)-1-oxo-2,3,5-triaza-4-thio]pentyl}benzene]
1.41 | O=C(CCCCc1ccccc1)Nc1cccc(/C=N/NC(=S)Nc2ccc(Cl)c(Cl)c2)c1 [Compound 39, N-{3-[(1E)-2-aza-2-({[(3,4-dichlorophenyl)amino]thioxomethyl}amino)vinyl]phenyl}-5-phenylpentanamide]
